Reference: patent US6602852B1, “Basic peptides and pharmaceutical compositions containing same” (NST NeuroSurvival Technologies, Ltd., priority 1998, dated 2003)

Columns and labels:
[1] = test system: HeLa cells undergoing dopamine-induced apoptosis; conditions: 750 nM
Description: HeLa cells were plated on tissue culture plates at a density of 3×10^6 cells/10 cm dish, and grown in a DMEM medium containing 10% FCS, as described in A. The cells were then incubated at 37° C. overnight, and then the medium was replaced with a medium containing 2% FCS and 500 μM of dopamine. 18 hours later, the medium was aspirated and discarded, and 10 ml of Phosphate Buffered Saline pH 7.4 (PBS) were added to the culture dish. The cells which were detached from the culture dish into the PBS were collected. These cells represent advanced apoptotic cells. The remaining cells which were attached to the culture dish were trypsinized by the addition of 2 ml of trypsin for 2 minutes at 37° C., followed by the addition of 10 ml of a medium containing 10% of FCS. The cells were then washed with PBS containing 2% Bovine Serum Albumin (BSA), and resuspended in TBS containing 2% BSA (TBS-BSA). These cells were regarded as early apoptotic cells. […] Only non-treated cells that were attached to the culture dish were used as control cells for the FACS analysis.
A set of 3 different cell types was taken:
The incubation with the NST300 compounds or control compound was performed in a final volume of 100 μl TBS-BSA, 5 μg/ml of propidium iodide (PI) and 750 nM of the tested compound or the control compound.
PI is a red fluorescent dye that stains DNA. […] Only cells that are in advanced apoptotic stages, or cells that have already died by apoptosis or necrosis will be permeable to PI and will be stained with the dye. […] The cells were then washed in 500 μl of cold TBS-BSA and centrifugated as before. The cells were then suspended in 100 μl of TBS-BSA containing streptavidin conjugated to fluorescein (FITC). […] Thereafter, the cells were washed three times in TBS-BSA and were taken for FACS analysis.
The FACS analysis was performed on a Beckton-Dickinson cell sorter, using lysis II software. Excitation was at 488 nm and the emission or FITC detection was at 535 nm and for PI detection at 585 nm.

Cardiolipin (CL) = test system: Cardiolipin (CL)
Description: As control, wells were coated with ethanol only. The coated plates were washed 3 times with 100 ul of blocking buffer (PBS containing 0.3% gelatin (Sigma) and 1 mM EDTA) to block non specific binding. A 5 min incubation time was used between each wash. Normal plasma (Ilex, Italy, 84670-11) and Lupus plasma (either from Gradipore, Australia, LAHP-1, or from Biopool, Ventura, Calif.) were prepared according to the producer instruction. The plasma was diluted 1/10 in the blocking buffer and was added to the CL and ethanol coated wells. Binding of different NST 300 compounds to CL was performed by addition of serial dilutions of NST compounds (prepared in the plasma/blocking buffer solution) to the CL or ethanol coated wells. Following 3 hr incubation, the plates were washed twice with PBS/BSA buffer (0.4% bovine serum albumin (BSA) in PBS). For detection of anticardiolipin binding property of the tested plasma, the plates were incubated with a 1/10000 dilution of Peroxidase-conjugated affinity purified Goat anti-human IgG (Jackson Immunoresearch lab.) in PBS/BSA buffer for 1 hour. The plates were then washed 3 times with PBS/BSA buffer, and color reaction was developed by incubation with 100 ul of 0-phenylenediamine (OPD) dihydrochloride (Sigma p-7288) at a concentration of 0.4 mg/ml in 0.05 M phosphate citrate buffer, pH 5.0 supplemented, with 4 ul of 30% hydrogen peroxide (Aldrich) for 10 ml mixture. To detect the level of NST 300 compound that was bound to CL, parallel wells were incubated with streptavidin conugated to OPD (SA-OPD, Jackson Immunoresearch lab.), that specifically recognize the biotinylated NST 300 compound. The resulting colour changes were recorded at […] using a Bio Tek Elx800 Eliza reader.

apoptotic hepatocytes = format: in vivo
Description: All animals were killed 2 hr after administration of antibody followed by organ removal. Heart, lung and liver were collected.
Formalin fixed paraffin-embedded tissues were sectioned (5 μm) for staining with Hematoxylin/Eosin or other techniques.
Endogenous peroxidase activity was blocked by incubation with 3% H2O2.
After washing with PBS, staining was developed with 3,3-diaminobenzidine tetrahydrochloride (DAB), and counterstained with Hematoxylin.
Liver sections from different lobes were used for detection of stained apoptotic cells compared to normal cells.
The percentage of apoptotic cells in the fields was estimated by evaluating parallel sections stained with Hematoxylin/Eosin. Analysis was performed blindly, since the pathologist performing the histological evaluation was unaware of the assignment of mice to the treatment or control group.

Myristate-KKKKKRFSFKKSFKLSGFSFKKNKKK (SEQUENCE ID NO. 2)-(biotin) [NST302]
binding intensity (FITC mean value) compared with NST301 ([1]; apoptotic cells): higher binding intensity
binding intensity: ratio of FITC mean value of apoptotic cells to that of control cells ([1]; early apoptotic cells, FIG. 3b): 9 fold
concentration at which binding to CL reached saturation (Cardiolipin (CL); CL coated ELISA wells): about 0.3 μM
concentration from which displacement of Lupus plasma binding to CL starts (Cardiolipin (CL); Lupus plasma from Gradipore): 0.1 µM
concentration of maximum effect of displacement of Lupus plasma from CL (Cardiolipin (CL); Lupus plasma from Gradipore): 2.5 µM
staining in normal hepatocytes (apoptotic hepatocytes; animals injected with NST302 only): never observed
staining of liver in anti-Fas treated mice (apoptotic hepatocytes; intravenous, 5 μM, avidin biotin peroxidase detection): observed at cytoplasma and cytoplasmatic border of apoptotic hepatocytes
